Measurements taken from ChEMBL document CHEMBL2169818, “Syntheses and biological activities of sulfoximine-based acyclic triaryl olefins” (Bioorg Med Chem Lett, 2012).

Experiments:
[1] = target: Estrogen receptor beta (Homo sapiens) (UniProt Q92731); assay: Displacement of [3H]-estradiol from human recombinant ERbeta expressed in Sf21 cells at 10 uM after 2 hrs
[2] = target: T1, Estrogen receptor (Homo sapiens) (UniProt P03372); assay: Displacement of [3H]-estradiol from human recombinant ERalpha expressed in Sf21 cells at 10 uM after 2 hrs
T1 sequence (whole entry): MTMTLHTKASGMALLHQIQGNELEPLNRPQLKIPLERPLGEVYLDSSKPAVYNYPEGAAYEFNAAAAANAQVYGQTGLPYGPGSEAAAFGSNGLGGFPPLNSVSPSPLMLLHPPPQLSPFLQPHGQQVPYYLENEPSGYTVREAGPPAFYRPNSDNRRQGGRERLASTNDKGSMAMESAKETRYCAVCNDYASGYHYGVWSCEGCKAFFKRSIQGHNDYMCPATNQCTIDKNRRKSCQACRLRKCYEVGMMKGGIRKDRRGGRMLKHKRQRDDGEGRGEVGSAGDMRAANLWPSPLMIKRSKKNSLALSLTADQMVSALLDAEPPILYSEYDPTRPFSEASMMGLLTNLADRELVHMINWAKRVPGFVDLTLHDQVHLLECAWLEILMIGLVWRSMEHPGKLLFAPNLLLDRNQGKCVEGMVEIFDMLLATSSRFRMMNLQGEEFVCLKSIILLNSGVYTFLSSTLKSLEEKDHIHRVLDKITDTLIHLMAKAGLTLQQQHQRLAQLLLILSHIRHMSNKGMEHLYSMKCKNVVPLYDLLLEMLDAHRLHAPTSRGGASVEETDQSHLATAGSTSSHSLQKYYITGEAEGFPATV

[3] = target: T2, Prostaglandin G/H synthase 1 (Homo sapiens, UniProt P23219); assay: Inhibition of human platelet COX1 using arachidonic acid as substrate at 10 uM preincubated for 15 mins before arachidonic acid addition measured after 15 mins
T2 sequence (P23219 whole entry): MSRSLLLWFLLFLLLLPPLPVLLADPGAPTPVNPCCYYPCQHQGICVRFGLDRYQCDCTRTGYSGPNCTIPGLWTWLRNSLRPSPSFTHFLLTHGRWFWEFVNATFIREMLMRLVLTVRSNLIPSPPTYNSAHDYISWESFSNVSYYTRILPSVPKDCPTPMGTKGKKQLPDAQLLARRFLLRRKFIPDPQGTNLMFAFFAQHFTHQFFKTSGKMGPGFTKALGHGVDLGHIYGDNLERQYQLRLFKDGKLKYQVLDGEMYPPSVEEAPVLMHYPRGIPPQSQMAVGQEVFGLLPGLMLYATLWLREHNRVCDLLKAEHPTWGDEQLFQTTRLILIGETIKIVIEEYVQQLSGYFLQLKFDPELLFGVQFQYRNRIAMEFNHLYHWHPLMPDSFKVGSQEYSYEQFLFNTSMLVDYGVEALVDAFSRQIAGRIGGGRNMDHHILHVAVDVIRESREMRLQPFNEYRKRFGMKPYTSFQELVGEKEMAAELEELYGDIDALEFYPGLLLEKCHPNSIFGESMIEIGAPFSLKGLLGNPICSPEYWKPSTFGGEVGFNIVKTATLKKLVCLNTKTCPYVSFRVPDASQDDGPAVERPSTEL

[4] = target: T3, Prostaglandin G/H synthase 2 (Homo sapiens, UniProt P35354); assay: Inhibition of COX2
T3 sequence (P35354 whole entry): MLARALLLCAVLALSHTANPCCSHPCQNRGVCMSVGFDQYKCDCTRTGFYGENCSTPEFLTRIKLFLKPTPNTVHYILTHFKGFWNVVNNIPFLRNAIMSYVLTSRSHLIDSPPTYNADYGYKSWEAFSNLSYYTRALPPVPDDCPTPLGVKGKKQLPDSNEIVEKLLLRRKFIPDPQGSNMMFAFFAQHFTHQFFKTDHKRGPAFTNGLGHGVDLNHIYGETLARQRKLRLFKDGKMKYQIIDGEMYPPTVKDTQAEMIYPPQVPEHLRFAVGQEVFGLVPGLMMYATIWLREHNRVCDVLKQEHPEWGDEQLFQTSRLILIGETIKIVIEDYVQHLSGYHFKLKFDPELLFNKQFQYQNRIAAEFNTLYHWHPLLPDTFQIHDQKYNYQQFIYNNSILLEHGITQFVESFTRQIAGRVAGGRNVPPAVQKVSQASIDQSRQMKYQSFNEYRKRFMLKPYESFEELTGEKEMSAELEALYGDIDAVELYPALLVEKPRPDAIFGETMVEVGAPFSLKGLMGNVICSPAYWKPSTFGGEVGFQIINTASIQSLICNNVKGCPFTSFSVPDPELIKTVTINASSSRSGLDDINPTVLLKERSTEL

[5] = target: T2, Prostaglandin G/H synthase 1; assay: Inhibition of COX1
[6] = target: T4, Prostaglandin G/H synthase 2 (Homo sapiens) (UniProt P35354); assay: Inhibition of human recombinant COX2 expressed in Sf21 cells using arachidonic acid as substrate at 10 uM preincubated for 15 mins before arachidonic acid addition measured after 5 mins
T4 sequence (whole entry): T3 sequence (P35354 whole entry)

Estrogen receptor beta (Homo sapiens), sequence (Q92731 whole entry): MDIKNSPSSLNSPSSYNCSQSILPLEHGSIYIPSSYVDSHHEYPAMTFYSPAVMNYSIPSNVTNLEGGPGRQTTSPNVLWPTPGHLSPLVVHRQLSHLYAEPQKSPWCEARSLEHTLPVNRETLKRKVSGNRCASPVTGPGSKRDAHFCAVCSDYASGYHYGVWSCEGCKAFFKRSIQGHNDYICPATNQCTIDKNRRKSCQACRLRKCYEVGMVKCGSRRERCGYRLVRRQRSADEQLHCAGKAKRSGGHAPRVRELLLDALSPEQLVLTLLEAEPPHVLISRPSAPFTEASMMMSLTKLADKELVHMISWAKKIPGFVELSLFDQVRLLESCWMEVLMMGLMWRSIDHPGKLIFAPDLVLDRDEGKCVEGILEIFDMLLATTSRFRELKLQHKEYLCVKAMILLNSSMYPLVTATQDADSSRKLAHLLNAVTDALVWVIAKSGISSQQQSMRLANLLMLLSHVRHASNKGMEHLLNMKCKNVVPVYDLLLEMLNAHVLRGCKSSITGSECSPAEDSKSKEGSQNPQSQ

Row | inhibition [1] [%] | inhibition [2] [%] | inhibition [3] [%] | IC50 [4] [nM] | IC50 [5] [nM] | inhibition [6] [%] | SMILES
1 | 53 | 77 | 23 | – | – | – | CC(=C(c1ccccc1)c1ccccc1)c1ccc([S+](C)(=N)[O-])cc1 (stereo not given)
2 | 77 | -6 | – | 14 | > 100000 | – | CCCCC(=C(c1ccccc1)c1ccccc1)c1ccc(S(C)(=O)=O)cc1
3 | 60 | 54 | 5 | – | – | 10 | CCCCC(=C(c1ccccc1)c1ccccc1)c1ccc([S+](C)([O-])=NC#N)cc1 (stereo not given)
4 | 80 | 91 | 12 | – | – | 17 | CCCCC(=C(c1ccccc1)c1ccccc1)c1ccc([S+](C)(=N)[O-])cc1 (stereo not given)
